The text below walks through data of patent US11459338B2, “Heterocyclic compounds as PRMT5 inhibitors” (JUBILANT EPISCRIBE LLC, priority 2018, dated 2022).

Read-outs that look alike come from different tables or passages of the source. Bounds are passed on as bounds.

One assay has as its target T1, PRMT5/MEP50 (Homo sapiens, UniProt O14744).
T1 construct: Full-length human PRMT5 (NP_006100)
Briefly: PRMT5/MEP50 enzyme assay on peptide substrates (3H-SAM Flashplate). The conditions noted are these: PRMT5/MEP50 10 nM, H4 1-15aa peptide 100 nM, 3H-SAM 1 μM. It counts as biochemical.

The next assay relates to Z-138 cells. Briefly: Z-138 long term proliferation assay (Cell Titer Glo). The conditions noted are these: Homo sapiens; for GI50: 192 h, Z-138 cells, cell viability, day 8, read-out: PRMT5 Z138 GI50 Day 8 μM; for IC50: Z-138, 192 h, summary of Table 1, read-out: IC50 value (all the three assays): Z138 GI50 Day 8. The format is cell-based. The essentials: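 Z-138 cells exposed to ten-point 3-fold dilutions (top 10 μM, 0.3% DMSO) for 96 h at 37° C., 5% CO2, then re-dosed for four more days.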
On the technique in general: ATP-based viability assays read luminescence as a measure of living cells.

In assay [1] the test system is Symmetric di-methyl arginine in Z-138 cells. Briefly: Z-138 methylation assay, ELISA for detection of symmetric di-methyl arginine. The conditions noted are these: Homo sapiens. It counts as cell-based. Here is the method:
General reagents. […] Iscove's Modified Dulbecco's Medium (IMDM), Horse serum, penicillin-streptomycin, PBS and TMB-ELISA substrate solution were purchased from ThermoFisher Scientific. Symmetric di-methyl arginine antibody was purchased from Cell Signaling Technologies.Anti-SNRPD3/SmD3 antibody was purchased from Sigma-Aldrich.
ELISA for detection of Symmetric di-methyl arginine. […] A compound source plate was prepared by performing ten-point 3-fold dilution in DMSO, such that the final top concentration of the compound was 10 μM, and DMSO was 0.3%. The total volume of compounds added was 20 μL. The cells were incubated for 96 h at 37° C., 5% CO2. Z-138 cells were directly lysed in media with 3× Lysis Buffer (1×: 10 mM HEPES pH7.9, 5 mM MgCl2, 1M NaCl, 0.25M Sucrose, 1% Triton X-100, 1 mM PMSF, Protease & Phosphatase inhibitors). […] Plates were incubated at room temperature for a minimum of 3 h and then washed with PBS-Tween 20 (0.05%). The plates were blocked with 5% BSA at room temperature for 1 h, washed with PBS-Tween 20 and incubated with primary antibody at 4 C overnight.
(ELISA stands for enzyme-linked immunosorbent assay.)

[2] abbreviates: Z-138, 96 h, summary of Table 1, read-out: IC50 value (all the three assays): Z138 SDMA ELISA Day 4.
[3] abbreviates: Z-138 cells, 96 h (day 4), read-out: PRMT5 Z138 SDMA ELISA Day 4 μM.

T1 sequence (O14744 whole entry): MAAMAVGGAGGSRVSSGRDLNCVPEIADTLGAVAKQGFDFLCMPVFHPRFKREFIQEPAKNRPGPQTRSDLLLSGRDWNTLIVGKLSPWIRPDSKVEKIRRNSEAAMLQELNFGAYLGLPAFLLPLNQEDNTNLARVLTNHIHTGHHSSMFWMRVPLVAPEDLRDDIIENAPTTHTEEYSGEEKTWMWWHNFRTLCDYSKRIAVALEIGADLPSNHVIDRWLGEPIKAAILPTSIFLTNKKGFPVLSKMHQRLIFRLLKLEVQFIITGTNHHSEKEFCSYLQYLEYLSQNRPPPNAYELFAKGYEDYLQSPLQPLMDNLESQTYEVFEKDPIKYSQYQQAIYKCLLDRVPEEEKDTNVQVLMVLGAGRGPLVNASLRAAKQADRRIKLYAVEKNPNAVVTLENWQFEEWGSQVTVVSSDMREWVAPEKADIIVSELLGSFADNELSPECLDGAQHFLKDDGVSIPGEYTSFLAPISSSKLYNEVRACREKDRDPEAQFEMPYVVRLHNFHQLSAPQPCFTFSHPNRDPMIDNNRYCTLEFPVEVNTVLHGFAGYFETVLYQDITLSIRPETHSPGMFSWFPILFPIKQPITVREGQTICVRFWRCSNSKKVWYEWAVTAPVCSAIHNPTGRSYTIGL
T1 sequence (Q9BQA1 whole entry partner): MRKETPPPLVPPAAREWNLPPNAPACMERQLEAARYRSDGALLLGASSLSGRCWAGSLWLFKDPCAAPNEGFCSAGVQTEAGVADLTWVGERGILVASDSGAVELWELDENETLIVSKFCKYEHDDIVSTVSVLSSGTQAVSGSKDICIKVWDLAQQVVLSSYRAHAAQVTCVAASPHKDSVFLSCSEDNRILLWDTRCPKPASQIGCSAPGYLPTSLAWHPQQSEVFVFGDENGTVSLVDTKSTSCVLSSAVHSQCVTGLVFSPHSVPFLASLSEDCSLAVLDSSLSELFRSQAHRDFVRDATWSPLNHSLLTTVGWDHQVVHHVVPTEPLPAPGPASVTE

The term GI50 denotes the concentration that inhibits growth by half. Regarding `CC(C)c1ccc2nc(C(=O)NCC(O)CN3CCc4ccccc4C3)cn2c1` (stereo in doubt) [Example 12, (S)—N-(3-(3,4-dihydroisoquinolin-2(1H)-yl)-2-hydroxypropyl)-6-isopropylimidazo [1,2-a]pyridine-2-carboxamide], the IC50 (at PRMT5/MEP50; in the assay with Z-138 cells; in assay [1] (setting [2]); in assay [1] (setting [3])) was 10 to 1000 nM throughout. In the assay on Z-138 cells, the GI50 lay in the range of 10 to 1000 nM.
`CC(C)Cn1cc(-c2ccc3nc(C(=O)NCC(O)CN4CCc5ccccc5C4)cn3c2)cn1` (stereo in doubt) [Example 18, (S)—N-(3-(3,4-dihydroisoquinolin-2(1H)-yl)-2-hydroxypropyl)-6-(1-isobutyl-1H-pyrazol-4-yl)imidazo[1,2-a]pyridine-2-carboxamide]: the IC50 (at PRMT5/MEP50; in the assay with Z-138 cells; in assay [1] (setting [2]); in assay [1] (setting [3])) was 10 to 1000 nM in each case. Moreover, the GI50 with Z-138 cells was in the range of 10 to 1000 nM.
On to `O=C(NCC(O)CN1CCc2ccccc2C1)c1cn2cc(C(F)(F)F)ccc2n1` (stereo not drawn) [Example 1, N-(3-(3,4-dihydroisoquinolin-2(1H)-yl)-2-hydroxypropyl)-6-(trifluoromethyl)imidazo[1,2-a]pyridine-2-carboxamide], for which the IC50 (against PRMT5/MEP50; in the assay with Z-138 cells; in assay [1] (setting [2]); in assay [1] (setting [3])) was 10 to 1000 nM throughout. Moreover, the GI50 with Z-138 cells lay in the range of 10 to 1000 nM.
For `Cc1ccc2nc(C(=O)NCC(O)CN3CCc4ccccc4C3)cn2c1` (stereo not drawn) [Example 2, N-(3-(3,4-dihydroisoquinolin-2(1H)-yl)-2-hydroxypropyl)-6-methylimidazo[1,2-a]pyridine-2-carboxamide], the IC50 (at PRMT5/MEP50; with Z-138 cells; in assay [1] (setting [2]); in assay [1] (setting [3])) was 10 to 1000 nM in each case. Further, the GI50 with Z-138 cells lay in the range of 10 to 1000 nM.
Take `CCn1cc(-c2ccc3nc(C(=O)NC[C@H](O)CN4CCc5ccccc5C4)cn3c2)cn1` [Example 4, (S)—N-(3-(3,4-dihydroisoquinolin-2(1H)-yl)-2-hydroxypropyl)-6-(1-ethyl-1H-pyrazol-4-yl)imidazo [1,2-a]pyridine-2-carboxamide]: the IC50 (on PRMT5/MEP50; in the assay on Z-138 cells; in assay [1] (setting [2]); in assay [1] (setting [3])) was 10 to 1000 nM in each case. In addition, the GI50 in the assay on Z-138 cells fell in the range of 10 to 1000 nM.
Consider `CCCc1nc(-c2ccc3nc(C(=O)NC[C@H](O)CN4CCc5ccccc5C4)cn3c2)no1` [Example 5, (S)—N-(3-(3,4-dihydroisoquinolin-2(1H)-yl)-2-hydroxypropyl)-6-(5-propyl-1,2,4-oxadiazol-3-yl)imidazo[1,2-a]pyridine-2-carboxamide], for which the IC50 (on PRMT5/MEP50; in the assay on Z-138 cells; in assay [1] (setting [2]); in assay [1] (setting [3])) was 10 to 1000 nM in each case. In the assay with Z-138 cells, the GI50 was in the range of 10 to 1000 nM.
Consider `Cc1nc(-c2ccc3nc(C(=O)NC[C@H](O)CN4CCc5ccccc5C4)cn3c2)no1` [Example 6, (S)—N-(3-(3,4-dihydroisoquinolin-2(1H)-yl)-2-hydroxypropyl)-6-(5-methyl-1,2,4-oxadiazol-3-yl)imidazo[1,2-a]pyridine-2-carboxamide], for which the IC50 (against PRMT5/MEP50; with Z-138 cells; in assay [1] (setting [2]); in assay [1] (setting [3])) was 10 to 1000 nM each time. Besides, in the assay with Z-138 cells, the GI50 is 10 to 1000 nM.
For `O=C(NC[C@H](O)CN1CCc2ccccc2C1)c1cn2cc(C(F)(F)F)ccc2n1` [Example 8, (S)—N-(3-(3,4-dihydroisoquinolin-2(1H)-yl)-2-hydroxypropyl)-6(trifluoromethyl) imidazo[1,2-a]pyridine-2-carboxamide], the IC50 (against PRMT5/MEP50; in the assay with Z-138 cells; in assay [1] (setting [2]); in assay [1] (setting [3])) was 10 to 1000 nM each time. Besides, in the assay with Z-138 cells, the 50% growth inhibitory concentration (GI50) fell in the range of 10 to 1000 nM.
As for `COc1ccc2nc(C(=O)NCC(O)CN3CCc4ccccc4C3)cn2c1` (stereo not drawn) [Example 9, N-(3-(3,4-dihydroisoquinolin-2(1H)-yl)-2-hydroxypropyl)-6-methoxyimidazo [1,2a]pyridine-2-carboxamide], the IC50 at PRMT5/MEP50 is 1000 to 5000 nM; in assay [1] (setting [3]), 10 to 1000 nM. Moreover, the GI50 with Z-138 cells was 1000 to 5000 nM.
Take `O=C(NCC(O)CN1CCc2ccccc2C1)c1cn2cc(-c3ccccc3)ccc2n1` (stereo not drawn) [Example 10, N-(3-(3,4-dihydroisoquinolin-2(1H)-yl)-2-hydroxypropyl)-6-phenylimidazo[1,2-a]pyridine-2-carboxamide]: the IC50 (at PRMT5/MEP50; in the assay on Z-138 cells; in assay [1] (setting [2]); in assay [1] (setting [3])) was 10 to 1000 nM in each case. In addition, the GI50 in the assay on Z-138 cells lay in the range of 10 to 1000 nM.
On to `O=C(NCC(O)CN1CCc2ccccc2C1)c1cn2cc(-c3ccc(F)cc3)ccc2n1` (stereo not drawn) [Example 11, N-(3-(3,4-dihydroisoquinolin-2(1H)-yl)-2-hydroxypropyl)-6-(4-fluorophenyl) imidazo[1,2-a]pyridine-2-carboxamide], for which the IC50 (at PRMT5/MEP50; with Z-138 cells; in assay [1] (setting [2]); in assay [1] (setting [3])) was 10 to 1000 nM throughout. The GI50 in the assay on Z-138 cells fell in the range of 10 to 1000 nM.
On to `Cn1cc(-c2ccc3nc(C(=O)NC[C@H](O)CN4CCc5ccccc5C4)cn3c2)cn1` [Example 13, (S)—N-(3-(3,4-dihydroisoquinolin-2(1H)-yl)-2-hydroxypropyl)-6-(1-methyl-1H-pyrazol-4-yl)imidazo[1,2-a]pyridine-2-carboxamide], for which the IC50 against PRMT5/MEP50 was greater than 5000 nM; in assay [1] (setting [3]), 10 to 1000 nM. Also, in the assay with Z-138 cells, the GI50 was greater than 5000 nM.
In the case of `N#Cc1ccc(-c2ccc3nc(C(=O)NC[C@H](O)CN4CCc5ccccc5C4)cn3c2)cc1` [Example 14, (S)-6-(4-cyanophenyl)-N-(3-(3,4-dihydroisoquinolin-2(1H)-yl)-2-hydroxypropyl) imidazo[1,2-a]pyridine-2-carboxamide], the IC50 (against PRMT5/MEP50; in the assay with Z-138 cells; in assay [1] (setting [2]); in assay [1] (setting [3])) was 10 to 1000 nM throughout. In addition, the GI50 in the assay with Z-138 cells lay in the range of 10 to 1000 nM.
With `O=C(NC[C@H](O)CN1CCc2ccccc2C1)c1cn2c(n1)CCC(C1CC1)C2` (stereo partly drawn) [Example 104, 6-cyclopropyl-N—((S)-3-(3,4-dihydroisoquinolin-2(1H)-yl)-2-hydroxypropyl)-5,6,7,8-tetrahydroimidazo[1,2-a]pyridine-2-carboxamide], in the assay with Z-138 cells, the GI50 was 1000 to 5000 nM. For the same compound, the IC50 in assay [1] (setting [3]) lay within 10 to 1000 nM.
`CCCC1CCn2cc(C(=O)NCC(O)CN3CCc4ccccc4C3)nc2C1` (stereo not drawn) [Example 105, N-(3-(3,4-dihydroisoquinolin-2(1H)-yl)-2-hydroxypropyl)-7-propyl-5,6,7,8 tetrahydroimidazo[1,2-a]pyridine-2-carboxamide]: the GI50 in the assay with Z-138 cells is 1000 to 5000 nM. For the same compound, the IC50 in assay [1] (setting [3]) is 10 to 1000 nM.
At PRMT5/MEP50, `O=C(NC[C@H](O)[C@@H](O)CN1CCc2ccccc2C1)c1cn2c(n1)CCC(C(F)(F)F)C2` (stereo partly drawn) [Example 117, N-((2S,3S)-4-(3,4-dihydroisoquinolin-2(1H)-yl)-2,3-dihydroxybutyl)-6-(trifluoromethyl)-5,6,7,8-tetrahydroimidazo[1,2-a]pyridine-2-carboxamide] showed an IC50 of 10 to 1000 nM. Also, in the assay with Z-138 cells, the 50% growth inhibitory concentration (GI50) lay in the range of 10 to 1000 nM.
On PRMT5/MEP50, `CN(C[C@H](O)CN1CCc2ccccc2C1)C(=O)c1cn2c(n1)CCC(C(F)(F)F)C2` (stereo partly drawn) [Example 119] had an IC50 of 10 to 1000 nM. For the same compound, the GI50 in the assay on Z-138 cells was 10 to 1000 nM.
Take `Cn1cc([C@H]2CCc3nc(C(=O)NC[C@H](O)CN4CCc5ccccc5C4)cn3C2)cn1` [Example 120A, (R)—N—((S)-3-(3,4-dihydroisoquinolin-2(1H)-yl)-2-hydroxypropyl)-6-(1-methyl-1H-pyrazol-4-yl)-5,6,7,8-tetrahydroimidazo[1,2-a]pyridine-2-carboxamide]: the IC50 against PRMT5/MEP50 lay within 10 to 1000 nM. Besides, in the assay with Z-138 cells, the GI50 was 10 to 1000 nM.
Compound `Cn1cc([C@@H]2CCc3nc(C(=O)NC[C@H](O)CN4CCc5ccccc5C4)cn3C2)cn1` [Example 120B, (S)—N—((S)-3-(3,4-dihydroisoquinolin-2(1H)-yl)-2-hydroxypropyl)-6-(1-methyl-1H-pyrazol-4-yl)-5,6,7,8-tetrahydroimidazo[1,2-a]pyridine-2-carboxamide] showed an IC50 at PRMT5/MEP50 of 10 to 1000 nM. Moreover, in the assay on Z-138 cells, the GI50 was 1000 to 5000 nM.
For `N#Cc1ccc2nc(C(=O)NC[C@H](O)CN3CCc4ccccc4C3)cn2c1` [Example 123, (S)-6-cyano-N-(3-(3,4-dihydroisoquinolin-2(1H)-yl)-2-hydroxypropyl)imidazo[1,2-a]pyridine-2-carboxamide], in that order: 10 to 1000 nM and 10 to 1000 nM.
